Measurements as given in patent US7671079B2, “Sulfonyltetrahydro-3H-benzo(e)indole-8-amine compounds as 5-hydroxytryptamine-6 ligands” (Wyeth LLC, priority 2003, dated 2010).

Target: T1, human cloned 5-HT6 receptors (Homo sapiens, UniProt P50406)
T1 construct: expressed in transfected cells; host or cells: Hela cells
Assay: 5-HT6 binding affinity, [3H]-LSD displacement on membranes of Hela cells expressing human cloned 5-HT6 receptors
Conditions: [3H]-LSD 3.0 nM, Hela cell membranes, 120 min at room temperature
Description: The affinity of test compounds for the serotonin 5-HT6 receptor is evaluated in the following manner. Cultured Hela cells expressing human cloned 5-HT6 receptors are harvested and centrifuged at low speed (1,000×g) for 10.0 min to remove the culture media. The harvested cells are suspended in half volume of fresh physiological phosphate buffered saline solution and recentrifuged at the same speed. This operation is repeated. The collected cells are then homogenized in ten volumes of 50 mM Tris.HCl (pH 7.4) and 0.5 mM EDTA. The homogenate is centrifuged at 40,000×g for 30.0 min and the precipitate is collected. The obtained pellet is resuspended in 10 volumes of Tris.HCl buffer and recentrifuged at the same speed. The final pellet is suspended in a small volume of Tris.HCl buffer and the tissue protein content is determined in aliquots of 10-25 μl volumes. Bovine Serum Albumin is used as the standard in the protein determination according to the method described in Lowry et al., J. Biol. Chem., 193:265 (1951). The volume of the suspended cell membranes is adjusted to give a tissue protein concentration of 1.0 mg/ml of suspension. The prepared membrane suspension (10 times concentrated) is aliquoted in 1.0 ml volumes and stored at −70° C. until used in subsequent binding experiments.
Binding experiments are performed in a 96 well microtiter plate format, in a total volume of 200 μl. […] The test compounds are added in 20.0 μl volume.
The reaction is allowed to proceed in the dark for 120 min at room temperature, at which time, the bound ligand-receptor complex is filtered off on a 96 well unifilter with a Packard Filtermate® 196 Harvester. The bound complex caught on the filter disk is allowed to air dry and the radioactivity is measured in a Packard TopCount® equipped with six photomultiplier detectors, after the addition of 40.0 μl Microscint®-20 scintillant to each shallow well. The unifilter plate is heat-sealed and counted in a PackardTopCount® with a tritium efficiency of 31.0%.
Binding in the presence of varying concentrations of test compound is expressed as a percentage of specific binding in the absence of test compound. The results are plotted as log % bound versus log concentration of test compound. […] A linear regression line of data points is plotted, from which the IC50 value is determined and the Ki value is determined based upon the following equation: Ki=IC50/(1+L/KD) where L is the concentration of the radioactive ligand used and KD is the dissociation constant of the ligand for the receptor, both expressed in nM.

T1 sequence (P50406 whole entry): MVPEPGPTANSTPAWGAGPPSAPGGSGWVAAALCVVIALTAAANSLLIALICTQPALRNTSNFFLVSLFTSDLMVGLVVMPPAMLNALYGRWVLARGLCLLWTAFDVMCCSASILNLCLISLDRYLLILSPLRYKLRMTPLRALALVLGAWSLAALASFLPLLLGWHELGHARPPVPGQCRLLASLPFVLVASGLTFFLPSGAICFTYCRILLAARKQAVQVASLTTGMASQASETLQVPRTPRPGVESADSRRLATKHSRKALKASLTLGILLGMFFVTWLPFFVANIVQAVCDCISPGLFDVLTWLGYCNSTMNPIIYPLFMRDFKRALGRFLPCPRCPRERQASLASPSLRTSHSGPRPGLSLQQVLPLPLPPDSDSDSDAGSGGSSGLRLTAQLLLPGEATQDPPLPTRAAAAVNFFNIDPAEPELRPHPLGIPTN

Ki | Molecule
6 nM | 3-[(2,3-dichlorophenyl)sulfonyl]-N,N-dimethyl-6,7,8,9-tetrahydro-3H-benzo[e]indol-8-amine [Example 16]
5 nM | 3-[(2,6-dichloroimidazo[2,1-b][1,3]thiazol-5-yl)sulfonyl]-N,N-dimethyl-6,7,8,9-tetrahydro-3H-benzo[e]indol-8-amine [Example 19]
1 nM | CN(C)C1CCc2ccc3c(ccn3S(=O)(=O)c3ccccc3)c2C1 (stereo not shown) [Example 8, N,N-Dimethyl-3-(Phenylsulfonyl)-6,7,8,9-tetrahydro-3H-benzo[e]indol-8-amine]
79 nM | CN(C)C1CCc2ccc3c(ccn3S(=O)(=O)c3ccc(OC(F)(F)F)cc3)c2C1 (stereo not shown) [Example 9]
19 nM | CN(C)C1CCc2ccc3c(ccn3S(=O)(=O)c3ccc(F)cc3)c2C1 (stereo not shown) [Example 11, 3-[(4-fluorophenyl)sulfonyl]-N,N-dimethyl-6,7,8,9-tetrahydro-3H-benzo[e]indol-8-amine]
55 nM | CN(C)C1CCc2ccc3c(ccn3S(=O)(=O)c3ccc(C(F)(F)F)cc3Cl)c2C1 (stereo not shown) [Example 12]
9 nM | CN(C)C1CCc2ccc3c(ccn3S(=O)(=O)c3ccc(F)c(F)c3)c2C1 (stereo not shown) [Example 13, 3-[(3,4-difluorophenyl)sulfonyl]-N,N-dimethyl-6,7,8,9-tetrahydro-3H-benzo[e]indol-8-amine]
2 nM | CN(C)C1CCc2ccc3c(ccn3S(=O)(=O)c3ccccc3Cl)c2C1 (stereo not shown) [Example 14, 3-[(2-chlorophenyl)sulfonyl]-N,N-dimethyl-6,7,8,9-tetrahydro-3H-benzo[e]indol-8-amine]
2 nM | CN(C)C1CCc2ccc3c(ccn3S(=O)(=O)c3cccc(Cl)c3)c2C1 (stereo not shown) [Example 15, 3-[(3-chlorophenyl)sulfonyl]-N,N-dimethyl-6,7,8,9-tetrahydro-3H-benzo[e]indol-8-amine]
8 nM | CN(C)C1CCc2ccc3c(ccn3S(=O)(=O)c3ccc(F)cc3F)c2C1 (stereo not shown) [Example 17, 3-[(2,4-diflorophenyl)sulfonyl]-N,N-dimethyl-6,7,8,9-tetrahydro-3H-benzo[e]indol-8-amine]
6 nM | CN(C)C1CCc2ccc3c(ccn3S(=O)(=O)c3c(Cl)nc4sccn34)c2C1 (stereo not shown) [Example 18, 3-[(6-chloroimidazo[2,1-b][1,3]thiazol-5-yl)sulfonyl]-N,N-dimethyl-6,7,8,9-tetrahydro-3H-benzo[e]indol-8-amine]
59 nM | Cc1noc(C)c1S(=O)(=O)n1ccc2c3c(ccc21)CCC(N(C)C)C3 (stereo not shown) [Example 20]
103 nM | Cc1ccc(S(=O)(=O)n2ccc3c4c(ccc32)CCC(NC2CC2)C4)cc1 (stereo not shown) [Example 21]
36 nM | Cc1ccc(S(=O)(=O)n2ccc3c4c(ccc32)CCC(NC2CCC2)C4)cc1 (stereo not shown) [Example 24]
12 nM | CCCNC1CCc2ccc3c(ccn3S(=O)(=O)c3ccc(C)cc3)c2C1 (stereo not shown) [Example 25]
13 nM | N,N-dimethyl-3-(2-naphthylsulfonyl)-6,7,8,9-tetrahydro-3H-benzo[e]indol-8-amine [Example 10]
